Results published in article PMC7176092, “Development of the first in vivo GPR17 ligand through an iterative drug discovery pipeline: A novel disease-modifying strategy for multiple sclerosis” (PLoS ONE, 2020).
Where “and” joins values, the source holds several entries; their conditions need not be identical. Identical values can stand only once. Like-named read-outs stand apart in the source and are kept apart here. Marks after values point to notes of the source that are not given here.

What was measured:
human GPR17 = target: T1, human GPR17 (Homo sapiens, UniProt Q13304); assay: [35S]GTPγS binding assay; format: biochemical
T1 construct: HA; expressed in transfected cells
Description: [^35S]GTPγS binding assays were carried out as previously described. Briefly, control and astrocytoma 1321N1 cells stably transfected with human pcDNA3.1 (control cells) and human HA-tag GPR17 were homogenized in 5 mM Tris/HCl and 2 mM EDTA (pH 7.4) and centrifuged at 48,000g for 15 min at 4°C. The resulting pellets were washed in 50 mM Tris/HCl and 10 mM MgCl2 (pH 7.4). After protein dosage, aliquots of cell membranes were incubated with increasing concentrations of each investigated ligand (1 pM–10 μM) and GTPγS binding to activated G-proteins was quantified as previously described. Compounds were purchased from two external providers, i.e., Ambinter (Ambinter c/o Greenpharma, Orléans, France http://www.ambinter.com/) and Asinex (http://www.asinex.com/).
For analysis and graphic presentation of [^35S]GTPγS binding data, a nonlinear multipurpose curve fitting computer program (Graph-Pad Prism) was used. All data are presented as the mean ± SEM of three different experiments.
The selected 15 molecules were evaluated in our in-house [^35S]GTPγS functional assay in membranes from cells transfected with human GPR17. […] Moreover, this assay has been already successfully used in the past to measure the ability of both endogenous and novel synthetic compounds to activate GPR17 [25, 31]. All tested molecules were able to potently activate GPR17 with nanomolar/sub-nanomolar affinities. Concentration-response curves obtained for each selected compound are reported in S4 Fig.

40 human receptors = assay: Selectivity profile on class-A GPCRs (Eurofins Cerep); details: 0.1 μM; binding and cellular assays
Description: A subset of GPCRs with a relevant role in demyelination/remyelination was also included in this analysis.

ADR1B = target: T2, ADR1B (Homo sapiens, UniProt P35368); assay: Binding assay ADR1B; details: 100 nM
T2 construct: Eurofins Cerep (external service)
T2 sequence (P35368 1-520): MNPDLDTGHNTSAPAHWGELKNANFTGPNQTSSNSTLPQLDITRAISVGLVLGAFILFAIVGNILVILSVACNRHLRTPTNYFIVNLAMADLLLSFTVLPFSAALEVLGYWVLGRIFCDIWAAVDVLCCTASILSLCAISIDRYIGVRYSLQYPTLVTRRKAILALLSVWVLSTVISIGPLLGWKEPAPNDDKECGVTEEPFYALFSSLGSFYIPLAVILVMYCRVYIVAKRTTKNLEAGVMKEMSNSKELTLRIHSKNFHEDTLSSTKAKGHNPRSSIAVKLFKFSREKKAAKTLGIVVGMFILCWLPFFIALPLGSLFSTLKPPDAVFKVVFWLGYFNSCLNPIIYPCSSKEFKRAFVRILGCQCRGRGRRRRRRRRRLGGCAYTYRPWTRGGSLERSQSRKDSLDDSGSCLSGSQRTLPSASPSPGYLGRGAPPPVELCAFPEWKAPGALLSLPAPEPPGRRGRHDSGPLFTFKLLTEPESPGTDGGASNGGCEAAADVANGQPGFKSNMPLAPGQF

ADR2C = target: T3, ADR2C (Homo sapiens, UniProt P18825); assay: Binding assay ADR2C; details: 100 nM
T3 construct: Eurofins Cerep (external service)
T3 sequence (P18825 1-462): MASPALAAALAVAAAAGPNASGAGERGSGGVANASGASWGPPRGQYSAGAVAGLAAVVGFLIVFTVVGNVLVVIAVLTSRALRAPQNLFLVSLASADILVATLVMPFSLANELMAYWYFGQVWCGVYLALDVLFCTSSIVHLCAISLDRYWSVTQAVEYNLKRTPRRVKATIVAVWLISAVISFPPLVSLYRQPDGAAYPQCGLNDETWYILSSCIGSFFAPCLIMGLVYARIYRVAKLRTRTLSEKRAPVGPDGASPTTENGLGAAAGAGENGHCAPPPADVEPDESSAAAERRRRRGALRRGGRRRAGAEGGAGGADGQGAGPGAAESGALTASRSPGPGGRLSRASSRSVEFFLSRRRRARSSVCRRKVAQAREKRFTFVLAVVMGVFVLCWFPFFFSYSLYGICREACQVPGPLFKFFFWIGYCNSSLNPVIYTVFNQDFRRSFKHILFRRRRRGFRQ

ADR1 = target: T4, ADR1 (Homo sapiens, UniProt P08588); assay: Binding assay ADR1 (reference atenolol); details: 100 nM
T4 construct: Eurofins Cerep (external service)

P2Y = assay: Binding assay P2Y; design: species or system human; details: 100 nM
CCR10 = target: T5, CCR10 (Homo sapiens, UniProt P46092); assay: Cellular functional assay CCR10
T5 sequence (P46092 1-362): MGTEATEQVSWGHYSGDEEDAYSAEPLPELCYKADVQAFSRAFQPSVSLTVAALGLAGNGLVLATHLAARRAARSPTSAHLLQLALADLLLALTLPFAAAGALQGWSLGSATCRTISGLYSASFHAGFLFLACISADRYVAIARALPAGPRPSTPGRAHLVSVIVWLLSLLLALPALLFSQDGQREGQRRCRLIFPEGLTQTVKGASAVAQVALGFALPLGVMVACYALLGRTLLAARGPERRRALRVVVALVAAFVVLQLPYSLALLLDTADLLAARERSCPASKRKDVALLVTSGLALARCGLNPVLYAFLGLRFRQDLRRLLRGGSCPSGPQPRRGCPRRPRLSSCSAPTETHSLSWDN

[1] = mean of 2, read-out: % Of control specific binding, Mean
[2] = read-out: % Inhibition of control specific binding
[3] = single replicates 1 and 2, 0.1 µM
[4] = single replicates 1 and 2, read-out: % Of control specific binding

T1 sequence (Q13304 29-367): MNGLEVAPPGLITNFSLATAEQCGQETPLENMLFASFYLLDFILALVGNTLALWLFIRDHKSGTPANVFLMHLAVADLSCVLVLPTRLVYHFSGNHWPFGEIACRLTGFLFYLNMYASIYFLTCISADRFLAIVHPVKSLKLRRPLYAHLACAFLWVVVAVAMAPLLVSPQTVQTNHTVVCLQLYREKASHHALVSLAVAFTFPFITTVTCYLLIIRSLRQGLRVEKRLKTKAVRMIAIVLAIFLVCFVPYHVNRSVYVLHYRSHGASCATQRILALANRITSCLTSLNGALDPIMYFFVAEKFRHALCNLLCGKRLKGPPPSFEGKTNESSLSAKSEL
T4 sequence (P08588 whole entry): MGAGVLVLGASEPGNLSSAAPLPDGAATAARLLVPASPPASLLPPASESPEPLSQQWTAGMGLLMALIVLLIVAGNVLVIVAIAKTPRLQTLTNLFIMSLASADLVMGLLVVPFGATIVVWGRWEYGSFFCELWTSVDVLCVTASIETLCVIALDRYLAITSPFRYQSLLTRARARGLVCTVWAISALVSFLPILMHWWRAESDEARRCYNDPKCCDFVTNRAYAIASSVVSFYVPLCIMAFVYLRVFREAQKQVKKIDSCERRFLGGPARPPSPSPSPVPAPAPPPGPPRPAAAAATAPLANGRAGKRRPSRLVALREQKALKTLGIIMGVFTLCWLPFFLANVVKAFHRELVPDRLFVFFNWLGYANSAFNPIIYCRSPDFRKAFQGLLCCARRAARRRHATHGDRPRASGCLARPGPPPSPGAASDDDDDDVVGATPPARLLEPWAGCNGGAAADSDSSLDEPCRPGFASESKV

EC50 (human GPR17; membranes of 1321N1 cells transfected with human GPR17, mean ± SEM of 3 experiments): 0.64 ± 0.12 nM
% Emax (ratio vs Emax of the standard) (human GPR17; standard LTD4 50 nM set to 100% († compounds)): 88.5 ^** %
Emax (% vs basal) (human GPR17; vs basal, mean ± SEM): 127.8 ± 3.0%
Pharmacological activity on the tested GPCRs (40 human receptors): no significant pharmacological activity
remaining activity at 0.1 µM (ADR1B; [1]): 89.8%
inhibition at 0.1 µM (ADR1B; [2]): 10%
% Of control specific binding (ADR1B; [3]): 100.1% and 79.4%
remaining activity at 0.1 µM (ADR2C; [1]): 109%
inhibition at 0.1 µM (ADR2C; [2]): -9%
% Of control specific binding (ADR2C; [3]): 108.4%
remaining activity at 0.1 µM (ADR2C; [4]): 109%
remaining activity at 0.1 µM (ADR1; [1]): 91.5%
inhibition at 0.1 µM (ADR1; [2]): 9%
% Of control specific binding (ADR1; [3]): 88.9%
remaining activity at 0.1 µM (ADR1; [4]): 94%
% Inhibition of control specific binding (P2Y): -28%
% Of control specific binding, Mean (P2Y; mean of 2): 128.2%
% Of control specific binding (P2Y; [3]): 120.7% and 135.7%
Agonist Response (% of Control) (CCR10; antagonist effect, 100 nM, single replicates 1st and 2nd, 0.1 µM): 90.0%
inhibition at 0.1 µM (CCR10; read-out: % Inhibition of control agonist response): -0.9%
activity at 0.1 µM (CCR10; read-out: Agonist Response (% of Control), Mean, antagonist effect, 100 nM, mean of 2): 87.7%
activity at 0.1 µM (CCR10; read-out: Agonist Response (% of Control), antagonist effect, 100 nM, single replicates 1st and 2nd): 85.4%
SMILES: Cc1ccc(-c2nnc(SCC(=O)Nc3nccs3)[nH]2)cc1 [Compound 9]
